How the values were obtained:
5-LOX [1] = target: T1, 5-LOX (Homo sapiens, UniProt P09917); experiment: 5-LOX product formation in activated PMNL; settings: for remaining activity at 3 µM: PMNL, read-out: 5-LOX PMNL residual activity at 3 μM;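 as to all read-outs here: freshly isolated human PMNL in PBS pH 7.4 plus glucose, preincubated 10 min at 37 °C with compound, 5-LOX products (all-trans LTB4 isomers, 5-HETE) quantified by RP-HPLC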
T1 sequence (P09917 1-674): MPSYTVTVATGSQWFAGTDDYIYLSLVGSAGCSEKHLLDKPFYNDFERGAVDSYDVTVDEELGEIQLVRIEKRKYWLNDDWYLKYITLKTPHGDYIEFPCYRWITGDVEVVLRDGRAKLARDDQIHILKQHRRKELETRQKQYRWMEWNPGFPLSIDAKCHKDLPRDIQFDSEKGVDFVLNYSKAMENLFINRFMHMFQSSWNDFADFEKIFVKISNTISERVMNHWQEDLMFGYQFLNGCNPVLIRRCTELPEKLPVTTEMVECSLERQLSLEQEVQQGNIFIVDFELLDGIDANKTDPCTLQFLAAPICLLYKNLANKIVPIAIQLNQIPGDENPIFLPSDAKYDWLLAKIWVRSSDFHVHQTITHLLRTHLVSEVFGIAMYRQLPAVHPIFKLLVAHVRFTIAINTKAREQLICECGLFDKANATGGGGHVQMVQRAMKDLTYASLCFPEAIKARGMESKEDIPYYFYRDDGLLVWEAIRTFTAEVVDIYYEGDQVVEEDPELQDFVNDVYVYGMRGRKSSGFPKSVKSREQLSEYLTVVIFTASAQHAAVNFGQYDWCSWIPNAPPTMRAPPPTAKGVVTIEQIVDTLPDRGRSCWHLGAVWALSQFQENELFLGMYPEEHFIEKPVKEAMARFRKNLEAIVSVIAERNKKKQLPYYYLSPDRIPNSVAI
Method: These volunteers regularly donated blood (every 8–12 weeks) and were physically inspected by a clinician.
Erythrocytes were removed by dextran sedimentation and hypotonic lysis. PMNL were obtained from the cell pellet and platelets from the supernatant.
Freshly isolated PMNL (5 × 10^6) suspended in PBS pH 7.4 with 1 mg/mL glucose or freshly withdrawn human whole blood were preincubated with the test compounds for 10 min (or as indicated) at 37 °C. […] The reaction was stopped with an equal volume of methanol.

5-LOX [2] = target: T1, 5-LOX; experiment: Cell-free 5-LOX activity (isolated human recombinant enzyme); settings: for remaining activity at 1 µM: read-out: 5-LOX enzyme residual activity at 1 μM
[3] = read-out: 5-LOX PMNL IC50, 5-LOX product formation in activated PMNL, mean ± SEM
[4] = read-out: 5-LOX enzyme IC50, isolated human 5-LOX, cell-free, mean ± SEM

| remaining activity at 3 µM (5-LOX [1]) [%] | IC50 (5-LOX [1]; [3]) [µM] | IC50 (5-LOX [2]; [4]) [µM] | remaining activity at 1 µM (5-LOX [2]) [%] | IC50 (5-LOX [1]) [µM] | IC50 (5-LOX [2]) [µM] | Structure (SMILES) |
| --- | --- | --- | --- | --- | --- | --- |
| 77.8 ± 7.6 | > 3 | > 1 | 50.3 ± 4.1 |  |  | C/C(=C\CC/C(C)=C/CC[C@]1(C)CCc2c(CN3CCN(C)CC3)c(O)c(CN3CCN(C)CC3)c(C)c2O1)CCC=C(CO)CO [Compound 40, 2-((4E,8E)-11-((R)-6-Hydroxy-2,8-dimethyl-5,7-bis((4-methylpiperazin-1-yl)methyl)chroman-2-yl)-4,8-dimethylundeca-4,8-dien-1-ylidene)propane-1,3-diol] |
| 101 ± 5.2 | > 3 | > 1 | 65.3 ± 25.2 |  |  | Cc1cc(O)cc2c1O[C@](C)(CC/C=C/C(=O)O)CC2 [Compound 17, (2E)-5-[(2R)-6-Hydroxy-2,8-dimethyl-3,4-dihydro-2H-1-benzopyran-2-yl]pent-2-enoic Acid] |
| 15.4 ± 1.9 |  |  | 14 ± 3.2 | 0.49 ± 0.13 | 0.21 ± 0.13 | C/C(=C\CC/C(C)=C/CC[C@]1(C)CCc2c(CO)c(O)cc(C)c2O1)CCC=C1COC(c2ccc([N+](=O)[O-])cc2)OC1 (stereo partly drawn) [Compound 48, (2R)-2-((3E,7E)-4,8-Dimethyl-11-(2-(4-nitrophenyl)-1,3-dioxan-5-ylidene)undeca-3,7-dien-1-yl)-5-(hydroxymethyl)-2,8-dimethylchroman-6-ol] |
| 84 ± 8.5 | > 3 | > 1 | 58.7 ± 4.6 |  |  | COc1ccc(C2OCC(=CCC/C(C)=C/CC/C(C)=C/CC[C@]3(C)CCc4c(C)c(O)c(C=O)c(C)c4O3)CO2)cc1OC (stereo partly drawn) [Compound 47] |
| 86.4 ± 0.8 | > 3 | > 1 | 79.7 ± 3.5 |  |  | Cc1cc(O)cc2c1O[C@](C)(CCC=C(CO)CO)CC2 [Compound 29, (R)-2-(3-(6-Hydroxy-2,8-dimethylchroman-2-yl)propylidene)propane-1,3-diol] |
|  |  | > 1 | 88.7 ± 4.3 |  |  | COC(=O)C(C)CCC/C(C)=C/CC/C(C)=C/CC[C@]1(C)CCc2cc(OC)cc(C)c2O1 (stereo partly drawn) [Compound 22, (6E,10E)-Methyl-13-((R)-6-methoxy-2,8-dimethylchroman-2-yl)-2,6,10-trimethyltrideca-6,10-dienoate] |
|  |  | > 1 | 98.1 ± 1.3 |  |  | COc1cc(C)c2c(c1)CC[C@@](C)(CC/C=C(\C)CC/C=C(\C)CCCC(C)C(=O)O)O2 (stereo partly drawn) [Compound 20, (6E,10E)-13-((R)-6-Methoxy-2,8-dimethylchroman-2-yl)-2,6,10-trimethyltrideca-6,10-dienoic Acid] |
|  |  | 0.38 ± 0.11 | 12.2 ± 4.1 |  |  | C/C(=C\CC[C@]1(C)CCc2cc(O)cc(C)c2O1)CCC(O)C(C)(O)CCC=C(CO)CO (stereo partly drawn) [Compound 30] |
|  |  |  | 83 ± 7.6 |  | > 1 | COc1ccc(C2OCC(=CCC/C(C)=C/CC/C(C)=C/CC[C@]3(C)CCc4cc(OCCCC(=O)O)cc(C)c4O3)CO2)cc1OC (stereo partly drawn) [Compound 45, 4-(((2R)-2-((3E,7E)-11-(2-(3,4-Dimethoxyphenyl)-1,3-dioxan-5-ylidene)-4,8-dimethylundeca-3,7-dien-1-yl)-2,8-dimethylchroman-6-yl)oxy)butanoic Acid] |
|  |  | > 1 | 99.8 ± 5.6 |  |  | C/C(=C\CC/C(C)=C/CC[C@]1(C)CCc2cc(OCC(N)=O)cc(C)c2O1)CCC=C(CO)CO [Compound 32, 2-(((R)-2-((3E,7E)-13-Hydroxy-12-(hydroxymethyl)-4,8-dimethyltrideca-3,7,11-trien-1-yl)-2,8-dimethylchroman-6-yl)oxy)acetamide] |
|  |  |  | 12.7 ± 9.3 |  | 0.21 ± 0.14 | COc1ccc(C2OCC(=CCC/C(C)=C/CC/C(C)=C/CC[C@]3(C)CCc4cc(O)cc(C)c4O3)CO2)cc1OC (stereo partly drawn) [Compound 44] |

| Structure (SMILES) | remaining activity at 3 µM (5-LOX [1]) [%] | IC50 (5-LOX [1]; [3]) [µM] | IC50 (5-LOX [2]; [4]) [µM] | remaining activity at 1 µM (5-LOX [2]) [%] | IC50 (5-LOX [1]) [µM] | IC50 (5-LOX [2]) [µM] |
| --- | --- | --- | --- | --- | --- | --- |
| C/C(=C\CC/C(C)=C/CC[C@]1(C)CCc2cc(O)cc(C)c2O1)CC/C=C/C(=O)O [Compound 14, (2E,6E,10E)-13-[(2R)-6-Hydroxy-2,8-dimethyl-3,4-dihydro-2H-1-benzopyran-2-yl]-6,10-dimethyltrideca-2,6,10-trienoic Acid] | 26.9 ± 4.8 | 2.2 ± 0.14 | 0.44 ± 0.08 | 24.5 ± 2.8 |  |  |

— PMC8365602 (Journal of Medicinal Chemistry, 2021)
